Measured values taken from US5527804A, “4-carbamoyloxy-piperidine-1-carboxylic acid esters: inhibitors or cholesterol absorption” (American Home Products Corporation, priority 1994, dated 1996).
Read-outs that look alike come from different tables or passages of the source.

Assays:
[1] = biological target: T1, cholesterol esterase (EC 3.1.1.13), CEH (Bos taurus, UniProt P30122); assay: In vitro inhibition of cholesteryl ester formation by cholesterol esterase (CEH); type: biochemical
T1 construct: purchased Sigma Company, St. Louis, Mo; C-1892; host or cells: bovine pancreas
T1 sequence (P30122 19-597): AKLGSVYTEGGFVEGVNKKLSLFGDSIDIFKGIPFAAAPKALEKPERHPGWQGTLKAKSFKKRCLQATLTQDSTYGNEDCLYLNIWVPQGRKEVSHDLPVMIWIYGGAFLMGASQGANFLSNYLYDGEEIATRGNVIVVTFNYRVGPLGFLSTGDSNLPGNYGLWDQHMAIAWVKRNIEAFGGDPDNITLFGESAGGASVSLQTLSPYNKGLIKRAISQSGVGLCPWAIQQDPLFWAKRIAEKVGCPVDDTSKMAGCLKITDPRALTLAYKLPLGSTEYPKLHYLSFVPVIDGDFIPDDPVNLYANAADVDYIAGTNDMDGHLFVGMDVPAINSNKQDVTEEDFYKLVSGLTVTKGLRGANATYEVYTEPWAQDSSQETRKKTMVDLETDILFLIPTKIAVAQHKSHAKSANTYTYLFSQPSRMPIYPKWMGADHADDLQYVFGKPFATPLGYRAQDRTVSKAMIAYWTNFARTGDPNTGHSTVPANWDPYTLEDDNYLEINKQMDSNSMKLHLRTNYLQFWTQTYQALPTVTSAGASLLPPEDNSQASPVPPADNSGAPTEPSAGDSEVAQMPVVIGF
Protocol: In Vitro Assay: The ability of the compounds of this invention to inhibit the formation of cholesteryl esters and thereby interfere with and prevent assimilation of cholesterol into the lymphatic system and ultimately the blood stream was established by incubating the compounds at 37° C. with a mixture of cholesterol and oleic acid in the presence of buffered cholesterol esterase [(EC 3.1.1.13) Sigma Company, St. Louis, Mo., U.S.A., No. C-1892, from bovine pancreas] and measuring the amount of ester formed, according to the procedure of Field, J. of Lipid Research, 25, 389 (1984).

[2] = system: absorption of 14C-cholesterol; assay: In vivo cholesterol absorption, serum radioactivity after oral [4-14C] cholesterol; design: species or system normal rats; conditions: normal rat, 6 hr, vs control
Protocol: In Vivo Assay: The in vivo cholesterol absorption studies were conducted in normal rats by oral administration of the compound being tested in propylene glycol and olive oil followed by oral administration of [4-^14 C] cholesterol in propylene glycol and olive oil, otherwise following the procedure of Cayen et al., J. Lipid Res. 20, 162 (1979). The serum radioactivity was measured at six hours after dosing. The results of this study are reported in Table I as percent decrease compared to control.

[3] = IC25 instead of IC50; 37° C.; cholesterol + oleic acid; bovine pancreas enzyme
[4] = 37° C.; cholesterol + oleic acid; bovine pancreas enzyme; read-out: In Vitro Results IC50 CEH

`O=C(NCCCCCCOC(=O)N1CCC(OC(=O)NCCCCc2ccccc2)CC1)Oc1ccc(Oc2ccccc2)cc1` [Example 10, 4-(4-Phenyl-butyl-carbamoyloxy)-piperidine-1-carboxylic acid 6-[(4-phenoxy-phenyl)-oxycarbonylamino]-hexyl ester] was tested, and the IC25 [1, 3] was 0.3 µM and the “Effect on Absorption of 14C-Chol, % Decrease” value (from here on “Effect … % Decrease”) ([2]; 10 mg/kg) was 61%.
With `CCCCCCNC(=O)OC1CCN(C(=O)OCCCCCCNC(=O)Oc2ccc(Oc3ccccc3)cc2)CC1` [Example 6, 4-(Hexylcarbamoyloxy)-piperidine-1-carboxylic acid 6-[(4-phenoxy-phenyl)-oxycarbonylamino]-hexyl ester] the IC50 ([1]; read-out: In Vitro Results IC50 CEH; 37° C.; cholesterol + oleic acid; bovine pancreas enzyme) was 1.1 µM and the “Effect … % Decrease” value ([2]; 3 mg/kg) was 49%.
`O=C(NCCCCCCOC(=O)N1CCC(OC(=O)N2CCCCC2)CC1)Oc1ccc(Oc2ccccc2)cc1` [Example 11, 4-(Piperidine-1-carbonyloxy)-piperidine-1-carboxylic acid 6-[(4-phenoxy-phenyl)oxycarbonylamino]-hexyl ester] was tested, and the IC50 [1, 4] was 5.9 µM and the “Effect … % Decrease” value ([2]; 10 mg/kg) was 81%.
With `O=C(NCCCCCCOC(=O)N1CCC(OC(=O)N2CCC3(CCCC3)CC2)CC1)Oc1ccc(Oc2ccccc2)cc1` [Example 7, 8-Aza-spiro[4.5]decane-8-carboxylic acid 1-{6-[(4-phenoxy-phenyl)-oxycarbonylamino]-hexyloxycarbonyl}-piperidin-4-yl ester] the IC25 [1, 3] was 0.2 µM and the “Effect … % Decrease” value ([2]; 10 mg/kg) was 50%.
In the case of `O=C(NCCCCCCOC(=O)N1CCC(OC(=O)NC2CCCCC2)CC1)Oc1ccc(Oc2ccccc2)cc1` [Example 9, 4-(Cyclohexylcarbamoyloxy)-piperidine-1-carboxylic acid 6-[(4-phenoxy-phenyl)-oxycarbonylamino]-hexyl ester], the IC25 [1, 3] is reported as 0.3 µM and the “Effect … % Decrease” value ([2]; 10 mg/kg) is reported as 46%.
`CCCCCCCCCCNC(=O)OC1CCN(C(=O)OCCCCCCNC(=O)Oc2ccc(Oc3ccccc3)cc2)CC1` [Example 8, 4-(Decylcarbamoyloxy)-piperidine-1-carboxylic acid 6-[(4-phenoxy-phenyl)-oxycarbonylamino]-hexyl ester] was tested, and the IC50 [1, 4] was 3 µM and the “Effect … % Decrease” value ([2]; 10 mg/kg) was 43%.
